We go through five molecules from patent US20230116703A1, “NOVEL ERGOLINES AND METHODS OF TREATING MOOD DISORDERS” (priority 2021, published 2023).

The structures appear in SMILES notation.

Data set [1] is described as follows: Metabolic stability in human liver microsomes (HLM). Type of data set: in vitro ADME. Particulars: both sexes, human, pooled human liver microsomes, pH 7.4, 0.50 mg protein per mL. The text has this: HLM Stability. Pooled HLM from adult male and female donors (Corning 452117) were used.
In the next data set the target is T1, 5-HT1A receptor (Homo sapiens, UniProt P08908).
T1 construct: host or cells: CHO cells
T1 sequence (P08908 1-422): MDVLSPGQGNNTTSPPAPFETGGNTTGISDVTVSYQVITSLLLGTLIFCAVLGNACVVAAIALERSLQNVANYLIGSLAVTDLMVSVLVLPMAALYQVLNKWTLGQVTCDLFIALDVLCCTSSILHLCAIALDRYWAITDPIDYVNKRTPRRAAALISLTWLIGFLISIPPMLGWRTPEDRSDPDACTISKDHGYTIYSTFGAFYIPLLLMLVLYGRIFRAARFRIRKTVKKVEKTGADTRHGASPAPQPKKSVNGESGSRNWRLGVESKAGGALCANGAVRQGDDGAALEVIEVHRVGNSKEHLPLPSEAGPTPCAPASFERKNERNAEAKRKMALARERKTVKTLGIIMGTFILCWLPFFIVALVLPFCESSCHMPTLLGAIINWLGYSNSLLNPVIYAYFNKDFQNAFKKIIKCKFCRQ
In words: cell-based. To be noted: Ca^2+ flux, agonist; for EC50: read-out: 5-HT1A EC50. On the procedure:
(§1) Functional Assays at 5-HT2A, 5-HT2B, and 5-HT1A. Agonist activity at 5-HT2A, 5-HT2B, and 5-HT1A receptors was determined using a FLIPR Ca^2+ flux assay at WuXi AppTec (Hong Kong) Limited according to their standard protocols. Briefly, stably transfected cells expressing the receptor of interest (HEK293 for 5-HT2A and 5-HT2B; CHO cells for 5-HT1A) were grown and plated in a 384 well plate and incubated at 37° C. and 5% CO2 overnight. A solution of 250 mM probenecid in 1 mL FLIPR assay buffer was prepared fresh. This was combined with a fluorescent dye (Fluo-4 Direct™) to make a final assay concentration of 2.5 mM. […] The fluorescent dye was then added to the assay plate along with assay buffer to a final volume of 40 μL. The cell plate was incubated for 50 min at 37° C. and 5% CO2 and placed into the FLIPR Tetra along with the compound plate. 10 μL of references and compounds were then transferred from the compound plate into the cell plate and the fluorescent signal was read.

The target in a further data set is T2, 5-HT2B receptor (Homo sapiens, UniProt P41595).
T2 construct: host or cells: HEK293
T2 sequence (P41595 whole entry): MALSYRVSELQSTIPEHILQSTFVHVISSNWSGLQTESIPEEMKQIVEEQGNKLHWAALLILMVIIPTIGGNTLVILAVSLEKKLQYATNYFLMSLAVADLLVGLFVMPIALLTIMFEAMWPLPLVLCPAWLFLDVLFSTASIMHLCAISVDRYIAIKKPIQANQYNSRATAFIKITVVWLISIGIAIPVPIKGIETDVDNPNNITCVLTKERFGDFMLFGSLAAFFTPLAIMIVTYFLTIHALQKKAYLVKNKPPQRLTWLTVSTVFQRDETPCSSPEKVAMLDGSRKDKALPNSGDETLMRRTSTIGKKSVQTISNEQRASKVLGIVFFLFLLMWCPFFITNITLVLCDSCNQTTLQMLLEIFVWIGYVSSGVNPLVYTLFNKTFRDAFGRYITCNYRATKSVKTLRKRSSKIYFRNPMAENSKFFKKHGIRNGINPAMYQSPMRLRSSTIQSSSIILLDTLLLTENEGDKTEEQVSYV
Briefly: cell-based. Particulars: Ca^2+ flux, agonist; for EC50: read-out: 5-HT2B EC50. On the procedure:
as §1

Another data set addresses 5-HT1B receptor (Homo sapiens, UniProt P28222). In words: cAMP accumulation agonist assay at 5-HT1B. Type of data set: cell-based. To be noted: cAMP, agonist; for EC50: read-out: 5-HT1B EC50. On the procedure: Disclosed compounds were tested for agonist activity at several serotonin receptor subtypes (5-HT2A, […], 5-HT2C, and 5-HT1A) using Ca^2+ flux functional assays and the 5-HT1B receptor using a cAMP accumulation assay, with the results summarized in Table 4. […] Potent agonist activity was also observed at the other serotonin receptors tested, although the selectivity profile among the receptors varied across compounds. […]. However, at the same time, the N-propyl compounds were more efficacious agonists at 5-HT2B than the corresponding N-methyl compounds. The selectivity of disclosed compounds for 5-HT2A over 5-HT2C and 5-HT1A was less predictable and varied widely across compounds, ranging from ˜1:6 to ˜20:1 (2C/2A) in the case of 5-HT2C and from ˜1:4 to >100:1 (1A/2A) in the case of 5-HT1A. […] An azetidinyl amide substituent tended to increase potency at 5-HT1A relative to 5-HT2A.
Functional Assay at 5-HT1B. Agonist activity at 5-HT1B was determined using a cAMP accumulation protocol at WuXi AppTec (Hong Kong) Limited according to their standard protocols. Briefly, stably transfected cells were plated in an OptiPlate-384 well plate, incubated at RT for 60 mins, and cAMP standard solution (800 nM, 10 μL) was added to the blank well. Then, 10 μL detection reagent was added to each well, the plate incubated for 60 mins at RT, and the plate read using EnVision.
(In general: cAMP levels reflect the balance of adenylyl cyclase and phosphodiesterase activity.)

The target of data set [2] is T3, 5-HT2A receptor (Homo sapiens, UniProt P28223).
T3 construct: host or cells: HEK293
T3 sequence (P28223 whole entry): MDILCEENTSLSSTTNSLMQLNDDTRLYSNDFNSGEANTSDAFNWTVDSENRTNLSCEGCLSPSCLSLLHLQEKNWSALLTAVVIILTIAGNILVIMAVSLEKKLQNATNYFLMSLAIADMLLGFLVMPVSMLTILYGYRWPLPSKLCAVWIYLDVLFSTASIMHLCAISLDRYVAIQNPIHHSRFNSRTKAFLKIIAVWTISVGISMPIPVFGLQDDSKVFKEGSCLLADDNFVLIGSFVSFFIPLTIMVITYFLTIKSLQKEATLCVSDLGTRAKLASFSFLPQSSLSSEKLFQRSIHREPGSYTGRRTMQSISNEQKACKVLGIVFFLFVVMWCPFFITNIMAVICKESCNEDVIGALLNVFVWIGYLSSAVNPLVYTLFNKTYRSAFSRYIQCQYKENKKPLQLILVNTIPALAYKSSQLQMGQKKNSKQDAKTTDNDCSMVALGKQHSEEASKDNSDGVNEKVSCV
In words: biochemical. It is filed as binding. Particulars: for Ki: 1 nM [^3H]ketanserin, HEK293 stable cell line, read-out: 5-HT2A Receptor Ki (nM) ([^3H]ketanserin). On the procedure:
Affinity of the test compounds for the 5-HT2A receptor was determined in radioligand binding experiments with [^3H]ketanserin by WuXi AppTec (Hong Kong) Limited, using methods adapted from the literature and under conditions described in Table 1.

Data set [3] concerns the target T3, 5-HT2A receptor. In words: cell-based. To be noted: for 5-HT2A % Act @ Max Dose / EC50: Ca^2+ flux, agonist; for EC50: read-out: 5-HT2A EC50. It is filed as cell-based. On the procedure:
as §1

5-HT1B receptor, sequence (P28222 whole entry): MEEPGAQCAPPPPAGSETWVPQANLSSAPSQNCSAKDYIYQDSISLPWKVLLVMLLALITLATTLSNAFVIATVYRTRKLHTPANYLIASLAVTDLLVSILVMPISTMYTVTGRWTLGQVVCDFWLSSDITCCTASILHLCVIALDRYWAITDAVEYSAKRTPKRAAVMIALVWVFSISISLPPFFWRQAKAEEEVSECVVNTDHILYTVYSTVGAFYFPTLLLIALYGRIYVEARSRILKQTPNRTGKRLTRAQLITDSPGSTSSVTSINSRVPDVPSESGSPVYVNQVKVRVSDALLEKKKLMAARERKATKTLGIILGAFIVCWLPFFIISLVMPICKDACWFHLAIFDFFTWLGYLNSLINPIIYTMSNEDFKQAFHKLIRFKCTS

The half-life is how long it takes for the measured level to halve. One may read the microsomal CLint as a measure of how fast metabolising enzymes remove a compound, apart from limits set by blood flow. Higher therefore signals rapid turnover. As a reminder, the EC50 is the concentration at which the effect is half-maximal. Broadly, the Ki is the equilibrium dissociation constant of an inhibitor or competing ligand from its target. With `CCC(CC)NC(=O)[C@@H]1C=C2c3cccc4[nH]c(Br)c(c34)C[C@H]2N(C)C1` [Compound 44, (6aR,9R)-5-bromo-N-(pentan-3-yl)-7-methyl-4,6,6a,7,8,9-hexahydroindolo[4,3-fg]quinoline-9-carboxamide], in data set [1], the half-life at 1 μM came to 9 min and the microsomal CLint at 1 μM was 153 µL/min/mg. In addition, at 5-HT1A receptor, the “5-HT1A % Act @ Max Dose” value was 16.56% and the EC50 is above 10000 nM. Besides, at 5-HT2B receptor, the “5-HT2B % Act @ Max Dose” value is 15.68% and the EC50 was above 10000 nM. At 5-HT1B receptor, the “5-HT1B % Act @ Max Dose” value came to 68.53% and the EC50 turned out to be 1270 nM. Besides, at 5-HT2A receptor [2], the inhibition constant Ki came out at 0.76 nM. For the same molecule, at 5-HT2A receptor [3], the “5-HT2A % Act @ Max Dose” value is 29.90% and the EC50 was 129 nM.
In the case of `CCN(CC)C(=O)[C@@H]1C=C2c3cccc4[nH]c(Br)c(c34)C[C@H]2N(CCCF)C1` [Compound 41, (6aR,9R)-5-bromo-N,N-diethyl-7-(3-fluoropropyl)-4,6,6a,7,8,9-hexahydroindolo[4,3-fg]quinoline-9-carboxamide], in data set [1], the half-life at 1 μM came to 10.7 min and the microsomal CLint at 1 μM stood at 130 µL/min/mg. In addition, on 5-HT1A receptor, the “5-HT1A % Act @ Max Dose” value is reported as 39.75% and the concentration giving a half-maximal response (EC50) was above 10000 nM. In addition, on 5-HT2B receptor, the “5-HT2B % Act @ Max Dose” value stood at 84.51% and the EC50 amounted to 509 nM. Besides, at 5-HT1B receptor, the “5-HT1B % Act @ Max Dose” value was 61.49% and the half-maximal effective concentration (EC50) was above 10000 nM. Further, the inhibition constant Ki on 5-HT2A receptor [2] amounted to 0.58 nM. At 5-HT2A receptor [3], the “5-HT2A % Act @ Max Dose” value amounted to 75.44% and the concentration giving a half-maximal response (EC50) is 116 nM.
`CC[C@@H](C)NC(=O)[C@@H]1C=C2c3cccc4[nH]cc(c34)C[C@H]2N(CCC(F)(F)F)C1` [Compound 40, (6aR,9R)—N—((R)-sec-butyl)-7-(3,3,3-trifluoropropyl)-4,6,6a,7,8,9-hexahydroindolo[4,3-fg]quinoline-9-carboxamide]: in data set [1], the half-life at 1 μM stood at 3.2 min and the microsomal CLint at 1 μM stood at 435 µL/min/mg. Besides, at 5-HT1A receptor, the “5-HT1A % Act @ Max Dose” value is on record as 22.27% and the EC50 was above 10000 nM. At 5-HT2B receptor, the “5-HT2B % Act @ Max Dose” value turned out to be 8.46% and the EC50 was above 10000 nM. In addition, on 5-HT1B receptor, the “5-HT1B % Act @ Max Dose” value stood at 62.14% and the EC50 was 8310 nM. For the same molecule, the Ki on 5-HT2A receptor [2] was 37.7 nM. On 5-HT2A receptor [3], the “5-HT2A % Act @ Max Dose” value is recorded as 45.12% and the EC50 was determined as 169 nM. The “selectivity for 5-HT2A compared to the other serotonin receptors tested (in words)” value at 5-HT2A receptor [3] (functional agonist assays) is “highly selective”.
On to `CCCN1C[C@H](C(=O)N(CC)CC)C=C2c3cccc4[nH]c(Br)c(c34)C[C@H]21` [Compound 9, (6aR,9R)-5-bromo-N,N-diethyl-7-propyl-4,6,6a,7,8,9-hexahydroindolo[4,3-fg]quinoline-9-carboxamide], for which, in data set [1], the half-life at 1 μM turned out to be 9.9 min and the microsomal CLint at 1 μM amounted to 140 µL/min/mg. Moreover, on 5-HT1A receptor, the “5-HT1A % Act @ Max Dose” value stood at 101.39% and the EC50 was determined as 96.5 nM. On 5-HT2B receptor, the “5-HT2B % Act @ Max Dose” value was 89.6% and the EC50 was 400 nM. At 5-HT1B receptor, the “5-HT1B % Act @ Max Dose” value worked out at 81.46% and the 50% effective concentration (EC50) came to 264 nM. Further, at 5-HT2A receptor [2], the Ki was 1.11 nM. In addition, at 5-HT2A receptor [3], the “5-HT2A % Act @ Max Dose” value worked out at 75.81% and the 50% effective concentration (EC50) worked out at 228 nM.
Take `CCN(CC)C(=O)[C@@H]1C=C2c3cccc4c3C(CN4)C[C@H]2N(C)C1` (mixture of isomers) [Compound 37, (6aR,9R)—N,N-diethyl-7-methyl-4,5,5a,6,6a,7,8,9-octahydroindolo[4,3-fg]quinoline-9-carboxamide]: in data set [1], the half-life at 1 μM is above 145 min and the microsomal CLint at 1 μM was below 9.6 µL/min/mg. For the same molecule, on 5-HT1A receptor, the “5-HT1A % Act @ Max Dose” value was found to be 108.98% and the half-maximal effective concentration (EC50) was determined as 17.2 nM. At 5-HT2B receptor, the “5-HT2B % Act @ Max Dose” value is on record as 24.06% and the EC50 was 465 nM. At 5-HT1B receptor, the “5-HT1B % Act @ Max Dose” value was 90.74% and the 50% effective concentration (EC50) amounted to 19.4 nM. The inhibition constant (Ki) on 5-HT2A receptor [2] was found to be 11.4 nM. Besides, at 5-HT2A receptor [2] (radioligand binding), the “5-HT2A receptor binding affinity / potency (in words)” value is recorded as “reduced in potency”. Also, at 5-HT2A receptor [3], the “5-HT2A % Act @ Max Dose” value stood at 76.37% and the concentration giving a half-maximal response (EC50) turned out to be 76.6 nM.
